Results published in the NIST ThermoML archive (doi:10.1021/je301084m).

Experiment: wn = mass fraction of the nth substance listed
Details: 101 kPa, Liquid; for viscosity: Capillary tube (Ostwald / Ubbelohde) method; for mass density: Pycnometric method

O=[N+]([O-])[O-].[Li+] [lithium nitrate] + O
Details | mass density [kg/m3] | viscosity [mPa·s]
283.15 K, w1 = 0.3 | 1203 | 2.41
293.15 K, w1 = 0.3 | 1199 | 1.902
293.15 K, w1 = 0.35 | 1236 | 2.241
293.15 K, w1 = 0.4 | 1274 | 2.791
303.15 K, w1 = 0.3 | 1193 | 1.535
303.15 K, w1 = 0.35 | 1231 | 1.85
303.15 K, w1 = 0.4 | 1269 | 2.24
303.15 K, w1 = 0.45 | 1314 | 2.87
303.15 K, w1 = 0.5 | 1358 | 3.839
303.15 K, w1 = 0.55 | 1405 | 5.357
313.15 K, w1 = 0.3 | 1188 | 1.3
313.15 K, w1 = 0.35 | 1225 | 1.552
313.15 K, w1 = 0.4 | 1263 | 1.888
313.15 K, w1 = 0.45 | 1307 | 2.363
313.15 K, w1 = 0.5 | 1352 | 3.114
313.15 K, w1 = 0.55 | 1398 | 4.299
313.15 K, w1 = 0.6 | 1449 | 6.274
323.15 K, w1 = 0.3 | 1179 | 1.112
323.15 K, w1 = 0.35 | 1216 | 1.306
323.15 K, w1 = 0.4 | 1257 | 1.58
323.15 K, w1 = 0.45 | 1300 | 1.994
323.15 K, w1 = 0.5 | 1346 | 2.543
323.15 K, w1 = 0.55 | 1391 | 3.515
323.15 K, w1 = 0.6 | 1440 | 4.961
333.15 K, w1 = 0.3 | 1173 | 0.95
333.15 K, w1 = 0.35 | 1210 | 1.134
333.15 K, w1 = 0.4 | 1250 | 1.356
333.15 K, w1 = 0.45 | 1293 | 1.7
333.15 K, w1 = 0.5 | 1339 | 2.143
333.15 K, w1 = 0.55 | 1384 | 2.926
333.15 K, w1 = 0.6 | 1432 | 4.153
333.15 K, w1 = 0.65 | 1494 | 5.721
343.15 K, w1 = 0.3 | 1166 | 0.826
343.15 K, w1 = 0.35 | 1203 | 0.985
343.15 K, w1 = 0.4 | 1243 | 1.182
343.15 K, w1 = 0.45 | 1286 | 1.479
343.15 K, w1 = 0.5 | 1331 | 1.854
343.15 K, w1 = 0.55 | 1376 | 2.493
343.15 K, w1 = 0.6 | 1424 | 3.472
343.15 K, w1 = 0.65 | 1486 | 4.764
353.15 K, w1 = 0.3 | 1159 | 0.731
353.15 K, w1 = 0.35 | 1196 | 0.864
353.15 K, w1 = 0.4 | 1236 | 1.041
353.15 K, w1 = 0.45 | 1279 | 1.302
353.15 K, w1 = 0.5 | 1324 | 1.616
353.15 K, w1 = 0.55 | 1369 | 2.158
353.15 K, w1 = 0.6 | 1416 | 2.955
353.15 K, w1 = 0.65 | 1479 | 4.02
363.15 K, w1 = 0.3 | 1152 | 0.65
363.15 K, w1 = 0.35 | 1189 | 0.773
363.15 K, w1 = 0.4 | 1230 | 0.927
363.15 K, w1 = 0.45 | 1272 | 1.149
363.15 K, w1 = 0.5 | 1317 | 1.466
363.15 K, w1 = 0.55 | 1361 | 1.882
363.15 K, w1 = 0.6 | 1408 | 2.564
363.15 K, w1 = 0.65 | 1472 | 3.394
373.15 K, w1 = 0.3 | 1144 | 0.586
373.15 K, w1 = 0.35 | 1181 | 0.7
373.15 K, w1 = 0.4 | 1222 | 0.837
373.15 K, w1 = 0.45 | 1265 | 1.034
373.15 K, w1 = 0.5 | 1309 | 1.306
373.15 K, w1 = 0.55 | 1353 | 1.693
373.15 K, w1 = 0.6 | 1400 | 2.248
373.15 K, w1 = 0.65 | 1464 | 2.953
383.15 K, w1 = 0.4 | 1213 | 0.763
383.15 K, w1 = 0.45 | 1258 | 0.938
383.15 K, w1 = 0.5 | 1301 | 1.175
383.15 K, w1 = 0.55 | 1346 | 1.505
383.15 K, w1 = 0.6 | 1393 | 1.993
383.15 K, w1 = 0.65 | 1456 | 2.615
393.15 K, w1 = 0.5 | 1294 | –
393.15 K, w1 = 0.55 | 1338 | 1.371
393.15 K, w1 = 0.6 | 1385 | 1.785
393.15 K, w1 = 0.65 | 1448 | 2.307
403.15 K, w1 = 0.6 | 1377 | 1.625
403.15 K, w1 = 0.65 | 1440 | 2.095
413.15 K, w1 = 0.65 | 1430 | 1.923
